In US6583179B2, “Substituted aminoalkylamide derivatives as antagonists of follicle stimulating hormone” (Ortho-McNeil Pharmaceutical, Inc., priority 1999, dated 2003):
pEC50: −log10 of the molar value.

Target: T1, human FSH receptor (Homo sapiens, UniProt P23945)
T1 construct: expressed in transfected cells; host or cells: Chinese Hamster Ovary cells (K-1; ATCC), line rhFSHR-cLUC
T1 sequence (P23945 18-695): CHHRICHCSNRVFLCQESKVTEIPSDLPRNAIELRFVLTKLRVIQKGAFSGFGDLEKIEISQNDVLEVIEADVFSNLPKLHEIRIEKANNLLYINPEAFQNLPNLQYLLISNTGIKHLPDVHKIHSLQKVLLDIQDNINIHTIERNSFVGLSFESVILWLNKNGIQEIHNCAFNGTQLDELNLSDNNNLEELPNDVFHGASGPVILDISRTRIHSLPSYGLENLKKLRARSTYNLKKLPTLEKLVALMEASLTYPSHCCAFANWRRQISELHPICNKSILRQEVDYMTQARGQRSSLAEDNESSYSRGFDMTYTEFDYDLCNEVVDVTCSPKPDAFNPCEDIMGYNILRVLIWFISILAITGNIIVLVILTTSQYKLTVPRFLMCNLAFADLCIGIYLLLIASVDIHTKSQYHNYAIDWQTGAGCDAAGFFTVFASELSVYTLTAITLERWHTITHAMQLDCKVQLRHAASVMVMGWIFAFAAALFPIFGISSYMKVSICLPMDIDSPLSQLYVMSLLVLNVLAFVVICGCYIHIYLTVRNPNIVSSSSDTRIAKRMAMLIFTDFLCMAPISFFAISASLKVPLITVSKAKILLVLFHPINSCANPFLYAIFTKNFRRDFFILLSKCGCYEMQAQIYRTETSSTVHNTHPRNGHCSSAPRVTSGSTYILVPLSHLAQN
Assay: hFSHR CHO cAMP assay (rhFSHR-cLUC cells, FSH-stimulated cAMP, radioimmunoassay)
Type: cell-based
Details: inhibition of cAMP produced by EC70 dose of FSH (4.85 nM); maximum concentration 50 μM
Description: Minimum Essential Medium-Alpha (MEM-alpha), fetal bovine serum (FBS), penicillin, streptomycin, geneticin, trypsin-EDTA, Hanks' Balanced Salt Solution (no Calcium chloride, Magnesium chloride, Magnesium sulfate, or phenol red; Ca-Mg free HBSS) were purchased from Gibco BRL (Gaithersburg, Md.). The cells used for the FSH bioassay (rhFSHR-cLUC) were Chinese Hamster Ovary cells (K-1; ATCC) stably transformed with human FSH receptor (pSVK-FSHr) and a cAMP luciferase reporter gene (responsive CGα-180LUC). Follicle Stimulating Hormone (Metrodin; Fertinex) was purchased from Serono, Ltd. (Norwell, Mass.).
The rhFSHR-cLUC cell cultures were maintained in MEM-Alpha supplemented with 10% heat-inactivated FBS (HIFBS), 100 U/ml penicillin, 100 μg/mL streptomycin, and included 0.1 g/L geneticin for stable cell selection.
Forty-eight hours after the cells were plated in sterile 96-well culture plates (Corning, Corning, N.Y.) the spent media was removed and 50 μl assay media (modified growth media with 2% HIFBS) containing 2 mM IBMX (3-isobutyl-1-methyl-xanthine) was added to the cells. Compounds (25 μl) in the appropriate concentration were added followed 5 minutes later by an EC70 dose of FSH (25 μl; 160 ng/ml; 4.85 nM). After 10 minutes @ 22.5° C. (room temperature) the reaction was terminated by addition of 25 μL 0.5 N hydrochloric acid to each well. The amount of cAMP produced was measured by radioimmunoassay in a FlashPlate (DuPont, Boston, Mass.). To each flash plate 60 μL flash plate buffer was added followed by 40 μL acidified cell sample or cAMP standard, followed with the addition of 100 μl ^125l-cAMP trace. The FlashPlates were sealed, incubated overnight @ room temperature, and counted in a Packard TopCount (Packard Instrument Co., Meriden, Conn.). The cAMP radioimmunoassay results were calculated using DPM conversion and log-logit transformation of % binding (Excel program).
Test compounds were solubilized in 30% dimethyl sulfoxide (DMSO) at a concentration of 10 mM before diluting to appropriate concentrations in assay medium. The final DMSO concentration in the treated cells and in the control cells was 0.75%.
For individual experiments, a set of samples were tested including a vehicle control (assay buffer), a reference compound (hFSH) at a range of concentrations designed to elicit a minimal to maximal response, and several concentrations of test compounds together with an EC70 concentration of standard (hFSH challenge). Each compound was performed in duplicates for the primary evaluation and quadruplicates for the dose-ranging experiments. The cAMP radioimmunoassay raw data (pmol) were calculated to provide average pmol cAMP produced/ml and the percent inhibition was calculated as shown below.
% Inh=[1−(Avg.pmoltest compound+standard)/(Avg.pmolstandard)]×100
EC50 values were calculated from an analysis of the concentration-inhibition data using a linear analysis of the data transformed to a log-logit format.

Row | pEC50 | SMILES
1 | 7.40 | C[C@@H](CN(CC(=O)NCc1ccc(CN)cc1)S(=O)(=O)c1ccc(-c2ccccc2Cl)cc1)c1ccccc1 [Compound 198]
2 | 7.10 | Cc1ccccc1-c1ccc(S(=O)(=O)N(CC(=O)NCc2ccc(CN)cc2)C[C@@H](C)c2ccccc2)cc1 [Compound 215]
